≈ marks a conversion by molar mass, not a printed value.
Legend:
Assay type in all cases: functional
Salmonella typhi [1] = experiment: Antibacterial activity against Salmonella enterica subsp. enterica serovar Typhi MTCC 733 assessed as growth inhibition at 3.12 to 50 ug/mL after 24 hr by agar disk diffusion method
Klebsiella pneumoniae [2] = experiment: Antibacterial activity against Klebsiella pneumoniae MTCC 109 assessed as growth inhibition at 3.12 to 50 ug/mL after 24 hr by agar disk diffusion method
Klebsiella pneumoniae [3] = experiment: Antibacterial activity against Klebsiella pneumoniae MTCC 109 assessed as growth inhibition after 24 hr by agar streak dilution method; settings: MTCC 109, 24 h
Salmonella typhi [4] = experiment: Antibacterial activity against Salmonella enterica subsp. enterica serovar Typhi MTCC 733 assessed as growth inhibition after 24 hr by agar streak dilution method; settings: MTCC 733, 24 h
Pseudomonas aeruginosa [5] = experiment: Antibacterial activity against Pseudomonas aeruginosa MTCC 741 assessed as growth inhibition after 24 hr by agar streak dilution method; settings: MTCC 741, 24 h
Escherichia coli [6] = experiment: Antibacterial activity against Escherichia coli MTCC 739 assessed as growth inhibition after 24 hr by agar streak dilution method; settings: MTCC 739, 24 h
Bacillus cereus [7] = experiment: Antibacterial activity against Bacillus cereus MTCC 430 assessed as growth inhibition after 24 hr by agar streak dilution method; settings: MTCC 430, 24 h
Staphylococcus aureus [8] = experiment: Antibacterial activity against Staphylococcus aureus MTCC 96 assessed as growth inhibition after 24 hr by agar streak dilution method; settings: MTCC 96, 24 h
[9] = tested on: Mycobacterium tuberculosis; experiment: Antimycobacterial activity against Mycobacterium tuberculosis H37Rv assessed as growth inhibition at MIC after 12 to 28 days by Lowenstein and Jensen agar dilution method
[10] = tested on: Mycobacterium tuberculosis; experiment: Antimycobacterial activity against Mycobacterium tuberculosis H37Rv assessed as growth inhibition after 12 to 28 days by Lowenstein and Jensen agar dilution method
[11] = tested on: Mycobacterium tuberculosis; experiment: Antimycobacterial activity against Mycobacterium tuberculosis H37Rv assessed as growth inhibition at MIC measured within 10 days by BACTEC MGIT method
[12] = tested on: Mycobacterium tuberculosis; experiment: Antimycobacterial activity against Mycobacterium tuberculosis H37Rv assessed as growth inhibition measured within 10 days by BACTEC MGIT method; settings: 240 h
Candida albicans [13] = experiment: Antifungal activity against Candida albicans MTCC 183 assessed as growth inhibition at 3.12 to 50 ug/mL after 24 hr by agar disk diffusion method
Aspergillus clavatus [14] = experiment: Antifungal activity against Aspergillus clavatus MTCC 1323 assessed as growth inhibition at 3.12 to 50 ug/mL after 24 hr by agar disk diffusion method
Aspergillus fumigatus [15] = experiment: Antifungal activity against Aspergillus fumigatus MTCC 343 assessed as growth inhibition at 3.12 to 50 ug/mL after 24 hr by agar disk diffusion method
Aspergillus niger [16] = experiment: Antifungal activity against Aspergillus niger MTCC 282 assessed as growth inhibition at 3.12 to 50 ug/mL after 24 hr by agar disk diffusion method
Candida albicans [17] = experiment: Antifungal activity against Candida albicans MTCC 183 assessed as growth inhibition after 48 hr by agar streak dilution method; settings: MTCC 183, 48 h
Aspergillus clavatus [18] = experiment: Antifungal activity against Aspergillus clavatus MTCC 1323 assessed as growth inhibition after 48 hr by agar streak dilution method; settings: MTCC 1323, 48 h
Aspergillus fumigatus [19] = experiment: Antifungal activity against Aspergillus fumigatus MTCC 343 assessed as growth inhibition after 48 hr by agar streak dilution method; settings: MTCC 343, 48 h
Aspergillus niger [20] = experiment: Antifungal activity against Aspergillus niger MTCC 282 assessed as growth inhibition after 48 hr by agar streak dilution method; settings: MTCC 282, 48 h
Shigella flexneri [21] = experiment: Antibacterial activity against Shigella flexneri MTCC 1457 assessed as growth inhibition at 3.12 to 50 ug/mL after 24 hr by agar disk diffusion method
Proteus vulgaris [22] = experiment: Antibacterial activity against Proteus vulgaris MTCC 1771 assessed as growth inhibition at 3.12 to 50 ug/mL after 24 hr by agar disk diffusion method
Pseudomonas aeruginosa [23] = experiment: Antibacterial activity against Pseudomonas aeruginosa MTCC 741 assessed as growth inhibition at 3.12 to 50 ug/mL after 24 hr by agar disk diffusion method
Escherichia coli [24] = experiment: Antibacterial activity against Escherichia coli MTCC 739 assessed as growth inhibition at 3.12 to 50 ug/mL after 24 hr by agar disk diffusion method
Bacillus cereus [25] = experiment: Antibacterial activity against Bacillus cereus MTCC 430 assessed as growth inhibition at 3.12 to 50 ug/mL after 24 hr by agar disk diffusion method
Staphylococcus aureus [26] = experiment: Antibacterial activity against Staphylococcus aureus MTCC 96 assessed as growth inhibition at 3.12 to 50 ug/mL after 24 hr by agar disk diffusion method
Shigella flexneri [27] = experiment: Antibacterial activity against Shigella flexneri MTCC 1457 assessed as growth inhibition after 24 hr by agar streak dilution method; settings: MTCC 1457, 24 h
Proteus vulgaris [28] = experiment: Antibacterial activity against Proteus vulgaris MTCC 1771 assessed as growth inhibition after 24 hr by agar streak dilution method; settings: MTCC 1771, 24 h
Candida albicans [29] = experiment: Antifungal activity against Candida albicans MTCC 183 assessed as growth inhibition at 100 ug/disk after 24 hr by agar disk diffusion method; settings: MTCC 183, 24 h, read-out: IZ
Aspergillus clavatus [30] = experiment: Antifungal activity against Aspergillus clavatus MTCC 1323 assessed as growth inhibition at 100 ug/disk after 24 hr by agar disk diffusion method; settings: MTCC 1323, 24 h, read-out: IZ
Aspergillus fumigatus [31] = experiment: Antifungal activity against Aspergillus fumigatus MTCC 343 assessed as growth inhibition at 100 ug/disk after 24 hr by agar disk diffusion method; settings: MTCC 343, 24 h, read-out: IZ
Aspergillus niger [32] = experiment: Antifungal activity against Aspergillus niger MTCC 282 assessed as growth inhibition at 100 ug/disk after 24 hr by agar disk diffusion method; settings: MTCC 282, 24 h, read-out: IZ

`COc1ccc(NC(=O)CNc2ccc(-c3nc(N4CC(C)CC(C)C4)nc(N4CC(C)CC(C)C4)n3)cc2)cc1` (centres undefined) was tested. Which “inhibition zone (IZ)” value (Salmonella typhi [1]) did it give?
Its value is 20 mm.

What about the “inhibition zone (IZ)” value (Klebsiella pneumoniae [2]) of the same compound?
Its value is <10 mm.

And the MIC (Klebsiella pneumoniae [3])?
The MIC was 50 µg/mL (≈ 89.6 µM).

What about the MIC (Salmonella typhi [4]) of the same compound?
The MIC was 25 µg/mL (≈ 44.8 µM).

What about the MIC (Pseudomonas aeruginosa [5]) of the same compound?
Its MIC is 50 µg/mL (≈ 89.6 µM).

And the MIC (Escherichia coli [6])?
The MIC was 50 µg/mL (≈ 89.6 µM).

And the MIC (Bacillus cereus [7])?
Its MIC is 25 µg/mL (≈ 44.8 µM).

And the MIC (Staphylococcus aureus [8])?
The MIC was 50 µg/mL (≈ 89.6 µM).

What about the “growth inhibition (GI)” value [9] of the same compound?
Its value is 99%.

What about the MIC [10] of the same compound?
The MIC was 6.25 µg/mL (≈ 11.2 µM).

And the “growth inhibition (GI)” value [11]?
The value was 99%.

And the MIC [12]?
Its MIC is 6.25 µg/mL (≈ 11.2 µM).

And the “inhibition zone (IZ)” value (Candida albicans [13])?
The value was 21 mm.

And the “inhibition zone (IZ)” value (Aspergillus clavatus [14])?
Its value is <10 mm.

And the “inhibition zone (IZ)” value (Aspergillus fumigatus [15])?
The value was <10 mm.

And the “inhibition zone (IZ)” value (Aspergillus niger [16])?
Its value is 14 mm.

What about the MIC (Candida albicans [17]) of the same compound?
The MIC was 25 µg/mL (≈ 44.8 µM).

What about the MIC (Aspergillus clavatus [18]) of the same compound?
Its MIC is > 50 µg/mL.

What about the MIC (Aspergillus fumigatus [19]) of the same compound?
Its MIC is > 50 µg/mL.

What about the MIC (Aspergillus niger [20]) of the same compound?
Its MIC is 50 µg/mL (≈ 89.6 µM).

And the “inhibition zone (IZ)” value (Shigella flexneri [21])?
The value was 19 mm.

What about the “inhibition zone (IZ)” value (Proteus vulgaris [22]) of the same compound?
The value was 22 mm.

And the “inhibition zone (IZ)” value (Pseudomonas aeruginosa [23])?
Its value is 22 mm.

What about the “inhibition zone (IZ)” value (Escherichia coli [24]) of the same compound?
Its value is 19 mm.

What about the “inhibition zone (IZ)” value (Bacillus cereus [25]) of the same compound?
The value was 23 mm.

And the “inhibition zone (IZ)” value (Staphylococcus aureus [26])?
The value was 16 mm.

And the MIC (Shigella flexneri [27])?
Its MIC is 50 µg/mL (≈ 89.6 µM).

And the MIC (Proteus vulgaris [28])?
Its MIC is 25 µg/mL (≈ 44.8 µM).

Which results are given for `CC[C@@H](CO)NCCN[C@@H](CC)CO` [ETHAMBUTOL]?
growth inhibition (GI) [11]: 99%; MIC [12]: 3.12 µg/mL (≈ 15.3 µM)

What does the source list for `NNC(=O)c1ccncc1` [ISONIAZID]?
growth inhibition (GI) [11]: 99%; MIC [12]: 0.2 µg/mL (≈ 1.46 µM)

For `CC(=O)N1CCN(c2ccc(OCC3COC(Cn4ccnc4)(c4ccc(Cl)cc4Cl)O3)cc2)CC1` (centres undefined) [KETOCONAZOLE], which zone of inhibition at 100 µg/disc (Candida albicans [29]) is on record?
The zone of inhibition at 100 µg/disc was 33 mm.

And the zone of inhibition at 100 µg/disc (Aspergillus clavatus [30])?
The zone of inhibition at 100 µg/disc was 31 mm.

And the zone of inhibition at 100 µg/disc (Aspergillus fumigatus [31])?
The zone of inhibition at 100 µg/disc was 29 mm.

And the zone of inhibition at 100 µg/disc (Aspergillus niger [32])?
The zone of inhibition at 100 µg/disc was 30 mm.

What about the MIC (Candida albicans [17]) of the same compound?
The MIC was 1.56 µg/mL (≈ 2.94 µM).

What about the MIC (Aspergillus clavatus [18]) of the same compound?
Its MIC is 0.78 µg/mL (≈ 1.47 µM).

And the MIC (Aspergillus fumigatus [19])?
Its MIC is 0.78 µg/mL (≈ 1.47 µM).

And the MIC (Aspergillus niger [20])?
The MIC was 1.56 µg/mL (≈ 2.94 µM).

What does the source list for `NC(=O)c1cnccn1` [PYRAZINAMIDE]?
growth inhibition (GI) [11]: 99%; MIC [12]: 6.25 µg/mL (≈ 50.8 µM)

For `CO[C@H]1/C=C/O[C@@]2(C)Oc3c(C)c(O)c4c(O)c(c(/C=N/N5CCN(C)CC5)c(O)c4c3C2=O)NC(=O)/C(C)=C\C=C\[C@H](C)[C@H](O)[C@@H](C)[C@@H](O)[C@@H](C)[C@H](OC(C)=O)[C@@H]1C` [RIFAMPIN], which “growth inhibition (GI)” value [11] is on record?
Its value is 99%.

What about the MIC [12] of the same compound?
Its MIC is 0.25 µg/mL (≈ 0.304 µM).

— ChEMBL document CHEMBL3046161, “Synthesis of potential antitubercular and antimicrobial s-triazine-based scaffolds via Suzuki cross-coupling reaction” (2013)
